Common to all, as to format: in vivo
The test system of assay [1] is A375 human melanoma xenograft. Description: subcutaneous A375 human melanoma xenograft model, tumor size. As to conditions: BALB/c nude mice, s.c. A375, DX-2400 20 mg/kg i.v. Q3D X6; for tumor volume: darcabazine 150 mg/kg i.p. Day 1, 4/wk x 3, compared to untreated mice (FIG. 1); for tumor growth rate: darcabazine 150 mg/kg i.p., compared to untreated mice. How it is done: The in vivo therapeutic efficacy of DX-2400 as a single agent or in combination with darcabazine was determined using a subcutaneous A375 human melanoma xenograft model.
A375 tumor cells were maintained in vitro as a monolayer culture in DMEM medium, supplemented with 10% heat inactivated fetal bovine serum, 100 U/ml penicillin and 100 μg/ml streptomycin, and L-glutamine (2 mM) at 37° C. in an atmosphere of 5% CO2 in air. The tumor cells were routinely subcultured twice weekly by trypsin-EDTA treatment. The cells growing in an exponential growth phase were harvested and counted for tumor inoculation.
55 BALB/c nude, female, 6-8 weeks, weighing approximately 18-22 were purchased from Shanghai Laboratory Animal Center SLAC (Shanghai, China) for use in the study (40 mice+˜40% spare). Each mouse was inoculated subcutaneously at the right flank with A375 tumor cells (5×10^6) in 0.1 ml of PBS for tumor development. The treatments were started when the mean tumor size reached approximately 150˜200 mm^3. Each group consisted of 10 mice.
(§1) The major endpoint is to see if the tumor growth can be delayed or tumor bearing mice can be cured. Tumor sizes were measured twice weekly in two dimensions using a caliper, and the volume was expressed in mm^3 using the formula: V=0.5 a×b^2 where a and b are the long and short diameters of the tumor, respectively. The tumor sizes were then used for the calculations of both T-C and T/C values. T-C is calculated with T as the time (in days) required for the mean tumor size of the treatment group to reach a predetermined size (e.g., 1000 mm^3), and C is the time (in days) for the mean tumor size of the control group to reach the same size. The T/C value (in percent) is an indication of antitumor effectiveness, T and C are the mean volume of the treated and control groups, respectively, on a given day.
Background: A xenograft is tissue or cells of one species grown in another, often human tumour cells in immunodeficient mice.

The test system of assay [2] is primary human pancreatic cancer PAM527 xenograft. The assay can be described thus: subcutaneous primary human pancreatic cancer PAM527 xenograft model in nude mice, tumor size. As to conditions: BALB/c nude mice, s.c. PAM527 tumor fragment; DX-2400 20 mg/kg i.v. Q3d x 6; gemcitabine 60 mg/kg i.p. Q4d x 4; compared to untreated mice (FIG. 3A). How it is done:
The in vivo anti-tumor activity of DX-2400 as a single agent or in combination with gemcitabine was evaluated in the treatment of subcutaneous primary human pancreatic cancer using a PAM527 xenograft model in nude mice.
75 BALB/c nude mice, female, 6-8 weeks, weighing approximately 18-24 g were purchased from SLAC, Shanghai, P. R. China (40 mice+˜90% spare). Tumor fragments from seed mice inoculated with selected primary human pancreatic cancer tissues (PAM527) were harvested and used for inoculation into BALB/c nude mice. Each mouse was inoculated subcutaneously at the right flank with one tumor fragment (2-3 mm in diameter) for tumor development. The treatments were started when the mean tumor size reached approximately 150 mm^3. Each group consisted of 10 mice.
(§2) The major endpoint is to see if the tumor growth can be delayed or tumor bearing mice can be cured. Tumor sizes were measured twice weekly in two dimensions using a caliper, and the volume was expressed in mm^3 using the formula: V=0.5 a×b^2 where a and b are the long and short diameters of the tumor, respectively. […] T-C is calculated with T as the time (in days) required for the mean tumor size of the treatment group to reach a predetermined size (e.g., 1000 mm^3), and C is the time (in days) for the mean tumor size of the control group to reach the same size. […]

For assay [3], the system named is Panc-1 human pancreas cancer xenograft. Description: subcutaneous Panc-1 human pancreas cancer xenograft model, tumor size. Particulars: BALB/c nude mice, s.c. Panc-1; DX-2400 20 mg/kg i.v. Q3D X6; gemcitabine 50 mg/kg i.p. Q3D X4; compared to untreated mice (FIG. 4A). How it is done: The in vivo therapeutic efficacy of DX-2400 as a single agent or in combination with gemcitabine was evaluated in the treatment of a subcutaneous Panc-1 human pancreas cancer xenograft model.
Panc-1 tumor cells were maintained in vitro as a monolayer culture in DMEM medium, supplemented with 10% heat inactivated fetal bovine serum, 100 U/ml penicillin and 100 μg/ml streptomycin, and L-glutamine (2 mM) at 37° C. in an atmosphere of 5% CO2 in air. The tumor cells will be routinely subcultured twice weekly by trypsin-EDTA treatment. The cells growing in an exponential growth phase will be harvested and counted for tumor inoculation.
A total of 56 (40 plus 40% spare) BALB/c nude, female, 6-8 weeks, weighing approximately 18-22 g were purchased from Shanghai Laboratory Animal Center SLAC (Shanghai, China) for use in the study. […]
as §2

For assay [4], the system named is SK-MEL-5 human melanoma xenograft. Description: subcutaneous SK-MEL-5 human melanoma xenograft model, tumor size. As to conditions: BALB/c nude mice, s.c. SK-MEL-5, DX-2400 20 mg/kg i.v. Q3D X6, paclitaxel 8 mg/kg i.p. Q4D X6; for tumor growth rate: compared to untreated mice; for tumor volume: compared to untreated mice (FIG. 2). How it is done: The in vivo therapeutic efficacy of DX-2400 as a single agent or in combination with Paclitaxel in the treatment of human melanoma was evaluated using a subcutaneous SK-MEL-5 human melanoma xenograft model.
SK-MEL-5 human melanoma cells were grown in EMEM medium, supplemented with 10% heat inactivated fetal bovine serum, 100 U/ml penicillin and 100 μg/ml streptomycin at 37° C. in an atmosphere of 5% CO2 in air. The tumor cells were routinely subcultured twice weekly. Cells were harvested during the logarithmic growth period and resuspended in physical PBS with proper cell concentration and kept on ice for tumor induction.
55 BALB/c nude, female, 6-8 weeks, weighing approximately 18-22 g (40 mice+˜40% spare) were used for the study. Animals were purchased from Shanghai Laboratory Animal Center SLAC (Shanghai, China, Shanghai). Each mouse was inoculated subcutaneously at the right flank with SK-MEL-5 tumor cells (5×10^6) in 0.1 ml of PBS for tumor development. The treatments were started when the mean tumor size reached approximately 150˜200 mm^3. Each group consisted of 10 mice.
as §1

Turning to `CN(C)/N=N/c1[nH]cnc1C(N)=O` [darcabazine, dacarbazine], in assay [1], the tumor volume entry was “reduced tumor volume” and the tumor growth rate result was “caused a reduction in tumor growth rate”.

Turning to `Nc1ccn([C@@H]2O[C@H](CO)[C@@H](O)C2(F)F)c(=O)n1` [gemcitabine], the mean tumor size result in assay [2] and in assay [3] was “reduced the tumor size” throughout.

As to `CC(=O)O[C@H]1C(=O)[C@@]2(C)[C@H]([C@H](OC(=O)c3ccccc3)[C@]3(O)C[C@H](OC(=O)[C@H](O)[C@@H](NC(=O)c4ccccc4)c4ccccc4)C(C)=C1C3(C)C)[C@]1(OC(C)=O)CO[C@@H]1C[C@@H]2O` [paclitaxel], in assay [4], the tumor growth rate entry is recorded as “caused a reduction in tumor growth rate” and the tumor volume entry is given as “reduced tumor volume”.

B1: DX-2400: human anti-MMP-14 antibody, light and heavy chains of M0038-F01; VH SEQ ID NO: 51, VL SEQ ID NO: 52 (antibody, listed as Homo sapiens, V domains shown)
VH: EVQLLESGGGLVQPGGSLRLSCAASGFTFSLYSMNWVRQAPGKGLEWVSSIYSSGGSTLYADSVKGRFTISRDNSKNTLYLQMNSLRAEDTAVYYCARGRAFDIWGQGTMVTVSS
VL: DIQMTQSPSSLSASVGDRVTITCRASQSVGTYLNWYQQKPGKAPKLLIYATSNLRSGVPSRFSGSGSGTDFTLTISSLQPEDFATYYCQQSYSIPRFTFGPGTKVDIK
For B1, the mean tumor size entry in assay [2] and in assay [3] was “reduced the mean tumor size” each time. Also, the tumor growth rate entry in assay [4] and in assay [1] was “caused a reduction in the tumor growth rate” each time. The tumor volume result in assay [4] and in assay [1] was “reduced tumor volume” each time.
